Earlier results in PMC4691061, “Repositioning of Thiourea-Containing Drugs as Tyrosinase Inhibitors” (International Journal of Molecular Sciences, 2015).

Biological target: tyrosinase
Settings: tyrosinase; read-out: IC50; cited from earlier work

Q: Which IC50 does the source give for CCc1cc(C(N)=S)ccn1 [ethionamide] here?
A: 4 µM
